Test results from patent US8618080B2, “Immunomodulatory compounds and treatment of diseases related to an overproduction of inflammatory cytokines” (OM Pharma, priority 2006, dated 2013).

Legend:
human CD4+ T cells = test: Cytokine production and proliferation of naïve CD4+ T cells stimulated with anti-CD3 and anti-CD28; format: cell-based; settings: 0.02-20 μg/ml; for IFN-γ production by CD4+ T cells / IL-13 production by CD4+ T cells: 6 days, ELISA
Protocol: A series of four compounds of the present invention (OM-197-MP-AC, OM-197-MC-HD, OM-294-BA-MP, OM-197-MP-HD) were tested directly as summarized below:
Naïve CD4^+ T cells were magnetically sorted from healthy blood donor (buffy coat). The cells were stimulated in the presence or not of graded doses of triacyl derivatives (0.02; 0.2; 2 and 20 μg/ml) using plate-bound anti-CD3 (5 μg/ml) and soluble anti-CD28 (1 μg/ml). After 6 days, cytokine levels (IFN-γ and IL-13) were tested in the culture supernatants using ELISA.
FIGS. 3A-3D: Effect of increasing doses of the four compounds tested (OM-197-MP-AC, n=5; OM-197-MC-HD, n=5; OM-294-BA-MP, n=7; OM-197-MP-HD, n=3) on IFN-γ and IL-13 production of human CD4^+ T cells following a polyclonal activation. Results are expressed as the median (±p25/p75) of n independent experiments and show the percentage (%) proliferation or cytokine production of treated cells versus untreated cells (considered as 100%, see dotted line). The statistical analysis was performed using a nonparametric unpaired Mann-Whitney t test (2-tailed).

murine DC cells = test: LPS-induced IL-12, TNF-α and IL-10 production by bone marrow derived dendritic cells; format: cell-based, murine (C57BL/7); settings: murine BM-derived DC; compound 0.01-100 μg/ml 1 h 30 before LPS 1 μg/ml; 20 h; ELISA
Protocol: Femora and tibiae from two male C57BL/7, 6 week-old (Charles River Laboratories France), were removed, stripped of muscles and tendons, and desinfected with 70% ethanol. Both ends of each bone were cut and the marrow was flushed with HBSS (Gibco BRL) using a syringe with a 26-gauge needle. The resulting cell suspension was centrifuged for 5 min. at 500 g and washed in HBSS. The cells were resuspended at 3×10^5 cells/ml in RPMI-1640 (Gibco BRL) supplemented with 2 mM L-glutamin (Sigma), 100 U/ml penicillin (Sigma), 100 μg/ml streptomycin (Sigma), 50 μM β-mercaptoethanol (Sigma), 10% heat-inactivated FCS (Sigma) and 15 ng/ml murine rGM-CSF (R&D).
To generate bone marrow (BM) derived dendritic cells (DC), BM leukocytes were cultured in 100-mm bacteriological petri dishes (Falcon 1029) for 8 days at 37° C. in 5% CO2. On day 0, 10 ml of cell suspension were seeded per dish. On day 3, another 10 ml of freshly prepared medium were added to each plate and on day 6, 9 ml of top medium were carefully removed from each plate and replaced by 10 ml of fresh medium.
Non-adherent cells of the 8-day old BM cell cultures were collected, centrifuged for 5 min. at 500 g, and resuspended at 1.25×10^6 cells/ml in supplemented RPMI containing 10 ng/ml GM-CSF. The cells were then seeded in 24-well tissue culture plates ([…]) and incubated for 1 h 30 at 37° C. in 5% CO2 in the absence or presence of OM-294-DP or OM-197-MP-AC (0.01-100 μg/ml/200 μl/well). LPS (E.coli O26:B6, Sigma), was then added at 1 μg/ml, and the plates were further incubated. After 20 h incubation, the supernatants were collected for analysis of cytokines. IL-12p70, IL-10, and TNF-α concentrations in DC culture supernatants were measured by ELISA using OptEIA matched Ab pairs from BD Pharmingen. Supersignal ELISA Pico chemiluminescent peroxidase substrate (BD Pharmingen) was used for the detection by luminometry (Wallac 1420 multilabel counter Victor-2). The assays were performed according to manufacturer's instructions.
FIG. 1: IL-12 (left panels) and IL-10 (right panels) secretion by murine DC stimulated by LPS (1 μg/ml) alone, or first during 90 minutes with the indicated concentrations (in μg/ml) of OM-197-MP-AC (A) or 294-DP (B), and then by LPS (1 μg/ml) for 20 additional hours. The supernatants were collected from the DC cultures and analyzed by ELISA for the presence of IL-12 and IL-10.
FIG. 2: TNF-α secretion by murine DC stimulated by LPS (1 μg/ml) alone, or first during 90 minutes with the indicated concentrations (in μg/ml) of 294-DP (294), or of OM-197-MP-AC (197), and then by LPS (1 μg/ml) for 20 additional hours. The supernatants were collected from the DC cultures and analyzed by ELISA for the presence of TNF-α.

[1] = system: Limulus Amoebocyte Lysate; test: Limulus Amoebocyte Lysate chromogenic test (LAL endotoxicity); format: biochemical
Protocol: Endotoxicity was determined first for OM-197-MP-AC and for OM-294-DP by the Limulus Amoebocyte Lysate chromogenic test (Chromogenic-LAL of Bio-Whittaker, kit n° 50-65OU).
The enzymatic reaction is carried out at 37° C. and the formation of the chromogen over time is measured at 405 nm. The time necessary to reach 0.2 units of D.O. is recorded and the endotoxic activity calculated in relation to a LPS standard (standard curve). The results are expressed in EU (Endotoxin Unit) in relation to a standardized preparation of E. coli LPS (1 EU corresponds to 0.08 ng equivalent LPS).

For CCCCCCCCCCCC(=O)O[C@H](CCCCCCCCCCC)CC(=O)N[C@@H](CCOP(=O)(O)O)C(=O)NCCC[C@H](COC(=O)CCCCC(O)CO)NC(=O)C[C@H](O)CCCCCCCCCCC (stereo partly drawn) [OM-197-MP-HD, (3S, 9R)-3-[(R)-3-dodecanoyloxytetradecanoylamino]-4-oxo-5-aza-9-[(R)-3-hydroxytetradecanoylamino]-decan-1, 10-diol 1-dihydrogenophosphate 10-(6,7-dihydroxyheptanoate)], the T cell proliferation (human CD4+ T cells) was “unaffected”, the “IFN-γ production by CD4+ T cells” value (human CD4+ T cells) was “unaffected” and the “IL-13 production by CD4+ T cells” value (human CD4+ T cells) was “reduced”.
CCCCCCCCCCCC(=O)O[C@H](CCCCCCCCCCC)CC(=O)N[C@@H](CCOP(=O)(O)O)C(=O)NCCC[C@H](COP(=O)(O)O)NC(=O)C[C@H](O)CCCCCCCCCCC [OM-294-DP] was tested, and the “LPS-induced production of IL-10” value (murine DC cells) was “increase”, the “LPS-induced production of IL-12” value (murine DC cells) was “decrease” and the “LPS-induced production of TNF-α” value (murine DC cells) was “decrease”. For the same molecule, the “Limulus activity in the chromogenic LAL assay” value [1] was “very little or no Limulus activity”.
For CCCCCCCCCCCC(=O)O[C@H](CCCCCCCCCCC)CC(=O)N[C@@H](CC(=O)O)C(=O)NCCC[C@H](COC(=O)CCCCC(O)CO)NC(=O)C[C@H](O)CCCCCCCCCCC (stereo partly drawn) [OM-197-MC-HD, N-[(R)-3-dodecanoyloxytetradecanoylamino]-L-aspartic acid, α-N-{(4R)-5-hydroxy-4-[(R)-3-hydroxytetradecanoylamino]pentyl}amide 5-O-(6,7-dihydroxyheptanoate)], the T cell proliferation (human CD4+ T cells) was “unaffected”, the “IFN-γ production by CD4+ T cells” value (human CD4+ T cells) was “unaffected” and the “IL-13 production by CD4+ T cells” value (human CD4+ T cells) was “reduced”.
In the case of CCCCCCCCCCCC(=O)O[C@H](CCCCCCCCCCC)CC(=O)N[C@@H](CCCCN)C(=O)NCCC[C@H](COP(=O)(O)O)NC(=O)C[C@H](O)CCCCCCCCCCC [OM-294-BA-MP, (5S,11R)-1-Amino-5-[(R)-3-dodecanoyloxytetradecanoylamino]-6-oxo-7-aza-11-[(R)-3-hydroxytetradecanoylamino]-dodecan-12-ol 12-dihydrogenophosphate], the T cell proliferation (human CD4+ T cells) is reported as “unaffected”, the “IFN-γ production by CD4+ T cells” value (human CD4+ T cells) is reported as “unaffected” and the “IL-13 production by CD4+ T cells” value (human CD4+ T cells) is reported as “reduced”.
